Source: patent publication US9540389B2, “Antimicrobial potentiators” (priority 2013, dated 2017)

Assays:
Escherichia coli AB1157 = assay: MIC assay (microbroth dilution) ± 25 μM EPI; assay type: cell-based; settings: for MICs (μg/ml) ± EPIs: MBX2319 / MICs (μg/ml) ± EPIs: PAβN / MICs (μg/ml) ± EPIs: None: E. coli AB1157 (WT), geometric mean; for MICs (μg/ml) ± EPIs: MBX2319: + 25 μM MBX2319; for MICs (μg/ml) ± EPIs: PAβN: + 25 μM PAβN; for MICs (μg/ml) ± EPIs: None: no EPI; for MIC Ratio MBX2319 / MIC Ratio PAβN: E. coli AB1157; for MIC Ratio MBX2319: MIC no cmpd/MIC + 25 μM MBX2319; for MIC Ratio PAβN: MIC no cmpd/MIC + 25 μM PAβN; for MIC: Escherichia coli, AB1157, read-out: MICs (μg/ml) ± EPIs: None
From the text: (§1) • Strains and Reagents. The following strains were obtained from the Keio collection (Baba, et al.: Construction of Escherichia coli K-12 in-frame, single-gene knockout mutants: the Keio collection. In Mol Syst Biol, vol. 2, pp. 2006 0008, (2006)): JW0451 (ΔacrB::kan), JW5503 (ΔtolC::kan), JW3234 (ΔacrF::kan), JW2661 (ΔemrB::kan), JW0863 (ΔmacB::kan). The deletion mutations in each of these strains were transferred to AB1157 using P1 phage transduction (see Table 1). The construction of the E. coli cell-based reporter strain (SOS-XXX) that was used for high throughput screening is described in detail in the supplementary information. […] Irgasan was a generous gift from Ciba Speciality Chemicals, Inc. (High Point, N.C.). Hoechst 33342 (H33342) was purchased from Molecular Probes (Eugene, Oreg.). […] Luria Broth (Miller) and agar were purchased as prepared dehydrated media from Becton Dickenson (Franklin Lakes, N.J.). The compound libraries used in high-throughput screens were purchased from Chembridge (San Diego, Calif.), ChemDiv (San Diego, Calif.), and TimTec (Newark, Del.). MBX2319 was synthesized by Microbiotix, Inc. • Antibacterial Activity Assays. The minimal inhibitory concentration (MIC) of antibacterial agents and biocides were determined using the microbroth dilution method essentially as described in the CLSI protocol M7-A7 (CLSI: Method for dilution antimicrobial susceptibility testing for bacteria that grow aerobically; Approved standard-document M7-A7. In Clinical and Laboratory Standards Institute document M7-A7, Clinical and Laboratory Standards Institute, Wayne, Pa., (2006)), with the following exceptions. LB media was used instead of MHB. […] The final concentration of DMSO in each assay was 2%. […] MIC assays were performed in triplicate and the geometric mean was calculated. Checkerboard MIC assays using an EPI and an antibacterial agent were performed essentially as described (Pillai, et al.: Antimicrobial Combinations. In Antibiotics in Laboratory Medicine, ed. by V. Lorian, pp. 365-440, Lippincott Williams & Wilkins, Philadelphia, Pa., (2005)), with the same modifications used for the MIC assays described above. • Time-Kill Assays. Killing curve assays were performed essentially as described (Pillai, et al.: Antimicrobial Combinations. In Antibiotics in Laboratory Medicine, ed. by V. Lorian, pp. 365-440, Lippincott Williams & Wilkins, Philadelphia, Pa., (2005)). Exponential bacterial cultures grown in LB were diluted to a cell density of ˜1×10^7 in LB followed by addition of CIP and/or an EPI. Viability was monitored over 2-4 hours by making serial dilutions in saline and spotting 5 μl of each dilution onto the surface of an LB agar plate in triplicate. Colonies were counted after the plates were incubated at 37° C. for 16-18 hr, colony forming units (CFU) per ml were calculated, and the average and standard deviation for the three replicates was determined. For treatments that decreased CFU/ml below the limit of detection for the spot plating method, the 100 μl samples were diluted into 5 ml LB top agar, were poured onto LB agar plates, and incubated for 18 hr at 37° C. To calculate the fraction of the control for each sample, the average CFU/ml values for treated samples were divided by those from the same sample at 0 h (time=0). Each experiment was repeated at least three times, and a representative experiment is shown. • H33342 Accumulation Assay. The rate of accumulation of the fluorescent dye Hoechst 33342 (H33342), which is a substrate of a wide variety of bacterial efflux pumps (van den Berg van Saparoea, et al., Biochemistry, vol. 44, pp. 16931-16938, (2005)), can be used to estimate the activity of the major efflux pumps in E. coli and many other bacterial species. The H33342 accumulation assay was used to evaluate the effect of EPIs on the activity of the AcrAB-TolC efflux pump in several bacterial species essentially as described (Coldham, et al., J Antimicrob Chemother, vol. 65, pp. 1655-1663, (2010)). […]

[1] = system: Escherichia coli AB1157 ΔacrB; assay: MIC assay (microbroth dilution); assay type: cell-based; settings: for MIC Ratio ΔacrB: MIC WT/MIC ΔacrB; for MICs (μg/ml) ΔacrB None: ΔacrB strain, no EPI, geometric mean; for MIC: Escherichia coli, read-out: MICs (μg/ml) ΔacrB None
From the text: as §1

P. aeruginosa ATCC 27853 = assay: MIC assay (microbroth dilution) ± 25 μM EPI; assay type: cell-based, Pseudomonas aeruginosa
From the text: as §1

[2] = system: Salmonella enterica ATCC 14028; assay: MIC assay (microbroth dilution) ± 25 μM EPI; assay type: cell-based
From the text: as §1

[3] = system: Shigella flexneri ATCC 12022; assay: MIC assay (microbroth dilution) ± 25 μM EPI; assay type: cell-based
From the text: as §1

[4] = system: Enterobacter aerogenes ATCC 13048; assay: MIC assay (microbroth dilution) ± 25 μM EPI; assay type: cell-based
From the text: as §1

Escherichia coli 331 = assay: MIC assay (microbroth dilution) ± 25 μM EPI; assay type: cell-based; settings: E. coli 331
From the text: as §1

[5] = system: Klebsiella pneumoniae ATCC 700603; assay: MIC assay (microbroth dilution) ± 25 μM EPI; assay type: cell-based
From the text: as §1

[6] = system: Escherichia coli ATCC 25922; assay: MIC assay (microbroth dilution) ± 25 μM EPI; assay type: cell-based; settings: E. coli ATCC 25922
From the text: as §1

Row | Compound | MICs (μg/ml) ± EPIs: MBX2319 (Escherichia coli AB1157) | MICs (μg/ml) ± EPIs: PAβN (Escherichia coli AB1157) | MIC Ratio MBX2319 (Escherichia coli AB1157) | MIC Ratio PAβN (Escherichia coli AB1157) | MIC Ratio ΔacrB [1] | MIC (Escherichia coli AB1157) | MIC [1] | further results
1 | CC1(C)S[C@@H]2[C@H](NC(=O)[C@H](N)c3ccc(O)cc3)C(=O)N2[C@H]1C(=O)O [Amoxacillin] | 4 µg/mL | 4 µg/mL | 1 | 1 | 0.5 | – | – | MICs (μg/ml) ± EPIs: None (Escherichia coli AB1157): 4 µg/mL; MICs (μg/ml) ΔacrB None [1]: 8 µg/mL
2 | CC1=C(C(=O)O)N2C(=O)[C@@H](NC(=O)[C@H](N)c3ccccc3)[C@H]2SC1 [Cephalexin] | 16 µg/mL | 16 µg/mL | 2 | 2 | 1 | 32 µg/mL | 32 µg/mL | –
3 | O=C(O)c1cn(C2CC2)c2cc(N3CCNCC3)c(F)cc2c1=O [Ciprofloxacin] | – | 0.031 µg/mL | – | – | – | – | – | MIC (μg/ml) ± EPI: PAβN (P. aeruginosa ATCC 27853; + 25 μM PAβN): 0.149 µg/mL; MIC (P. aeruginosa ATCC 27853; Pseudomonas aeruginosa, ATCC27853, no EPI, read-out: MIC (μg/ml) ± EPI: None): 0.21 µg/mL; MIC (μg/ml) ± EPI: MBX2319 ([2]; + 25 μM MBX2319): 0.008 µg/mL; MIC (μg/ml) ± EPI: PAβN ([2]; + 25 μM PAβN): 0.044 µg/mL; MIC ([2]; ATCC14028, no EPI, read-out: MIC (μg/ml) ± EPI: None): 0.031 µg/mL; MIC (μg/ml) ± EPI: PAβN ([3]; Shigella flexneri ATCC 12022, + 25 μM PAβN): 0.031 µg/mL; MIC ([3]; Shigella flexneri, ATCC12022, read-out: MIC (μg/ml) ± EPI: None): 0.031 µg/mL; MIC (μg/ml) ± EPI: MBX2319 ([4]; + 25 μM MBX2319): 0.008 µg/mL; MIC (μg/ml) ± EPI: PAβN ([4]; + 25 μM PAβN): 0.031 µg/mL; MIC ([4]; Klebsiella aerogenes, ATCC13048, no EPI, read-out: MIC (μg/ml) ± EPI: None): 0.037 µg/mL; MIC (μg/ml) ± EPI: MBX2319 (Escherichia coli 331; + 25 μM MBX2319): 32 µg/mL; MIC (μg/ml) ± EPI: PAβN (Escherichia coli 331; + 25 μM PAβN): 128 µg/mL; MIC (Escherichia coli 331; Escherichia coli, no EPI, read-out: MIC (μg/ml) ± EPI: None): 128 µg/mL; MIC (μg/ml) ± EPI: MBX2319 ([5]; + 25 μM MBX2319): 0.088 µg/mL; MIC (μg/ml) ± EPI: PAβN ([5]; + 25 μM PAβN): 0.25 µg/mL; MIC ([5]; ATCC700603, no EPI, read-out: MIC (μg/ml) ± EPI: None): 0.29 µg/mL; MIC (μg/ml) ± EPI: MBX2319 ([6]; + 25 μM MBX2319): 0.005 µg/mL; MIC (μg/ml) ± EPI: PAβN ([6]; + 25 μM PAβN): 0.022 µg/mL
4 | O=C(N[C@H](CO)[C@H](O)c1ccc([N+](=O)[O-])cc1)C(Cl)Cl [Cloramphenicol] | 2 µg/mL | 2 µg/mL | 4 | 4 | 4 | – | – | MICs (μg/ml) ± EPIs: None (Escherichia coli AB1157): 8 µg/mL; MICs (μg/ml) ΔacrB None [1]: 2 µg/mL
5 | Cc1onc(-c2ccccc2Cl)c1C(=O)N[C@@H]1C(=O)N2[C@@H]1SC(C)(C)[C@@H]2C(=O)O [Cloxacillin] | 128 µg/mL | 64 µg/mL | 2 | 4 | 64 | 256 µg/mL | 4 µg/mL | –
6 | CN(C)c1ccc(C(=C2C=CC(=[N+](C)C)C=C2)c2ccc(N(C)C)cc2)cc1 [Crystal violet] | 8 µg/mL | 1 µg/mL | 2 | 16 | 16 | 16 µg/mL | 1 µg/mL | –
7 | CC[n+]1c(-c2ccccc2)c2cc(N)ccc2c2ccc(N)cc21 [Ethidium Br, Ethidium Bromide] | 256 µg/mL | 16 µg/mL | 1 | 16 | 32 | 256 µg/mL | 8 µg/mL | –
8 | Oc1cc(Cl)ccc1Oc1ccc(Cl)cc1Cl [Irgasan] | 0.125 µg/mL | 0.031 µg/mL | 2 | 8 | 8 | – | – | MICs (μg/ml) ± EPIs: None (Escherichia coli AB1157): 0.25 µg/mL; MICs (μg/ml) ΔacrB None [1]: 0.031 µg/mL
9 | CCn1cc(C(=O)O)c(=O)c2ccc(C)nc21 [Nalidixic acid] | 8 µg/mL | 1 µg/mL | 2 | 16 | 2 | 16 µg/mL | 8 µg/mL | –
10 | CCn1cc(C(=O)O)c(=O)c2cc(F)c(N3CCNCC3)cc21 [Norfloxacin] | 0.063 µg/mL | 0.063 µg/mL | 1 | 1 | 4 | 0.063 µg/mL | 0.016 µg/mL | –
11 | Cc1onc(-c2ccccc2)c1C(=O)N[C@@H]1C(=O)N2[C@@H]1SC(C)(C)[C@@H]2C(=O)O [Oxacillin] | 64 µg/mL | – | – | – | – | 512 µg/mL | 4 µg/mL | –
12 | CO[C@H]1/C=C/O[C@@]2(C)Oc3c(C)c(O)c4c(O)c(c(/C=N/N5CCN(C)CC5)c(O)c4c3C2=O)NC(=O)/C(C)=C\C=C\[C@H](C)[C@H](O)[C@@H](C)[C@@H](O)[C@@H](C)[C@H](OC(C)=O)[C@@H]1C [Rifampicin] | 8 µg/mL | – | – | – | – | 8 µg/mL | 8 µg/mL | –
13 | CN(C)[C@@H]1C(O)=C(C(N)=O)C(=O)[C@@]2(O)C(O)=C3C(=O)c4c(O)cccc4[C@@](C)(O)[C@H]3C[C@@H]12 [Tetracycline] | – | – | – | – | – | – | 0.5 µg/mL | –
14 | Gentamicin | 8 µg/mL | 8 µg/mL | 0.5 | 0.5 | 1 | – | – | MICs (μg/ml) ± EPIs: None (Escherichia coli AB1157): 4 µg/mL; MICs (μg/ml) ΔacrB None [1]: 4 µg/mL
